From ChEMBL document CHEMBL5260804 (ACS Med Chem Lett, 2017) come the findings set out here.

For assay [1], the system named is Oocyte. In words: Inhibition of influenza A virus A/WSN/33-M2-N31S (H1N1) M2 transmembrane domain V28I mutant expressed in Xenopus laevis oocytes assessed as inhibition of channel current at 100 uM measured after 5 mins by two-electrode voltage clamp assay relative to control. Format: cell-based.
Assay [2] relates to Oocyte. In words: Inhibition of influenza A virus A/WSN/33-M2-N31S (H1N1) M2 transmembrane domain V28I mutant expressed in Xenopus laevis oocytes assessed as inhibition of channel current at 100 uM measured after 2 mins by two-electrode voltage clamp assay relative to control. The class given is cell-based.
A further assay has as its system Influenza A virus. In words: Antiviral activity against amantadine-sensitive influenza A virus A/WSN/33-M2-N31S (H1N1) infected in MDCK cells assessed as inhibition of virus-induced cytopathic effect incubated for 48 hrs by crystal violet/neutral red staining based assay. Format: functional, organism-based.

For the compound `CC(N)C12CC3CC(CC(C3)C1)C2` (racemic) [RIMANTADINE], the figures for the inhibition in the assay with Oocyte [1] and with Oocyte [2] were 93% and 84%, respectively. Besides, the IC50 in the assay with Influenza A virus worked out at 40 nM.
Regarding `NC12CC3CC(CC(C3)C1)C2` [AMANTADINE], the IC50 in the assay on Influenza A virus came to 480 nM.
Consider `C[C@@H](N)C12CC3CC(CC(C3)C1)C2`, for which the results for the inhibition in the assay on Oocyte [1] and with Oocyte [2] were 90% and 71%, respectively. Besides, the IC50 with Influenza A virus was determined as 40 nM.
Consider `C[C@H](N)C12CC3CC(CC(C3)C1)C2`, for which the inhibition is 92% in the assay with Oocyte [1] and 78% in the assay with Oocyte [2]. For the same compound, the IC50 in the assay with Influenza A virus amounted to 20 nM.
For the compound `CC(C)(N)C12CC3CC(CC(C3)C1)C2`, the values for the inhibition in the assay with Oocyte [1] and in the assay with Oocyte [2] were 80% and 56%, respectively. For the same compound, the IC50 with Influenza A virus was found to be 30 nM.
